Measured values taken from paper PMC7696940, “Effects of Rationally Designed Physico-Chemical Variants of the Peptide PuroA on Biocidal Activity towards Bacterial and Mammalian Cells” (International Journal of Molecular Sciences, 2020).
Converted amounts (≈) assume the structure as drawn. Where no end group is shown, it is not given here.

What was measured:
C. albicans FRR 5580 = format: cell-based, Candida albicans; details: PDB, overnight; mode of three independent experiments
Experimental: The assay was carried out as per Alfred et al.. Candida albicans (FRR 5580) was grown in potato dextrose broth (PDB; Difco-BD, Bergen County, NJ, USA) overnight at 30 °C with shaking (200 rpm) until exponential phase, then adjusted to 0.5 McFarland turbidity standard (approximately 1 × 10^6 cells/mL) and diluted 1:200 with PDB to 0.5 − 2 × 10^3 cells/mL. Peptides in 25 μL volumes were mixed with 75 μL of the yeast suspensions. The controls were included as above. The plates were incubated overnight and absorbance was recorded. All the tests were conducted in triplicate.

S. aureus ATCC25923 = format: cell-based, Staphylococcus aureus; details: MHB; for MIC S. aureus, No NaCl: 0 mM NaCl; for MIC S. aureus, No NaCl / MIC S. aureus, With 50mM NaCl / MIC S. aureus, With 100mM NaCl / MIC S. aureus, With 150mM NaCl: triplicate, mode; for MIC S. aureus ATCC25923: 37 °C overnight, A595, mode of three independent experiments
Experimental: (§1) The activity of peptides was determined against the Gram-positive Staphylococcus aureus (ATCC 25923), and the Gram-negative Escherichia coli (ATCC 25922) and Pseudomonas aeruginosa (ATCC 9027) bacteria. Selected peptides were also tested against two clinical isolates of methicillin-resistant Staphylococcus aureus (MRSA), M173525 and M180920, kindly provided by Dr P. B. Ward (Microbiology Department, Austin and Repatriation Medical Centre, Heidelberg West, Victoria, Australia). The Minimum inhibitory concentration (MIC) of peptides was determined by the microtitre broth dilution method, as described in Phillips et al.. Briefly, bacteria were grown in Mueller-Hinton Broth (MHB) at 37 °C overnight with shaking (200 rpm). The cultures were adjusted to 0.5 McFarland turbidity standard (approximately 1 × 10^8 colony forming units (CFU)/mL), then diluted 1:100 in MHB (1 × 10^6 CFU/mL). A total of 75 μL of these suspensions were mixed with 25 μL of peptide solutions (final concentrations 250 to 0.5 μg/mL) and the microtitre plates incubated overnight at 37 °C. Positive growth controls (inoculum and MHB, with no peptide) and sterility controls (0.01% glacial acetic) were also included. Post-incubations, the absorbance of cultures at 595 nm was measured using a microplate reader (POLARstar Omega, Germany). […] To evaluate salt sensitivity of peptides up to physiological levels (150 mM NaCl), overnight cultures of S. aureus and E. coli adjusted to 0.5 McFarland turbidity standard were diluted 1:100 in MHB containing 0, 50, 100 or 150 mM NaCl, and the MICs of peptides determined as above. All tests were conducted in triplicate. The results are shown as the mode of values obtained.

[1] = test system: pBlueScript SK+ plasmid DNA; experiment: In vitro DNA-binding assay (gel retardation); details: 100 ng pBlueScript SK+, peptide 8-500 µg/mL, 1 h room temperature, 1% agarose
Experimental: The ability of peptides to bind to purified DNA (indicative of in vivo DNA binding potential) was tested by the modified gel retardation assay developed by Alfred et al.. The DNA of pBlueScript SK+ (100 ng) was incubated with peptides (to final concentrations of 8, 16, 32, 64, 125, 250 or 500 µg/mL) in 15 µL volumes made with sterile MilliQ water, the held at room temperature for 1h. Loading dye was added to each sample and the samples electrophoresed on 1% agarose gels. The gels were then immersed in ethidium bromide ([…]) then visualized and imaged

NIH-3T3 cells = experiment: Cytotoxicity, MTT assay; format: cell-based, mouse; details: 24 h; for IC50 NIH-3T3: peptide up to 250 µg/mL, concentration causing 50% cell growth inhibition, mean of triplicate assays; for Cytotoxicity to NIH-3T3 mouse fibroblasts (in words): up to 250 µg/mL
Experimental: (§2) Cytotoxicity to human cervical carcinoma HeLa cells and mouse fibroblastic NIH-3T3 cells was determined using the MTT assay as per Scudiero et al. with minor modifications. The cells were maintained in Dulbecco’s Modified Eagle Medium (DMEM) with 10% foetal bovine serum (FBS) and 1% penicillin G in a humidified incubator (Heraeus Hera Cell incubator) at 37 °C with 5% CO2. They were seeded in 96-well microtiter plates at 1 × 10^4 cells/well and allowed to adhere for 24 h in the incubator. The medium was removed, and adherent cells were washed with PBS. Fresh media containing serially diluted peptides in PBS (final concentrations 4 to 250 µg/mL) were added and the cells incubated for 24 h. Cells without peptides were used as negative controls. Following incubations, the medium was removed, and adherent cells were washed with PBS. 150 µL of MTT (diluted to 0.33 mg/mL in DMEM) and the plates incubated for 3 h. The precipitated formazan was dissolved in 100 µL of DMSO and its absorbance measured at 570 nm. Cell viability was determined as: (OD570 nm peptide treated cells/(OD570 nm untreated cells) × 100. Positive cytotoxicity was defined as peptide concentration that causes 50% growth inhibition in a cell line (IC50). All tests were carried out in triplicate.

[2] = test system: porcine trypsin and proteinase K; experiment: Proteases stability assay; format: in vitro ADME, porcine; Tritirachium album; details: 1000 µg peptide with 50 µg protease (20:1 w/w), porcine trypsin or proteinase K, PBS pH 7.4, 37 °C, 3 h; read-out activity of supernatant on E. coli and S. aureus; triplicate
Experimental: The effect of two well-studied proteases, porcine trypsin and proteinase K from Tritirachium album, on the activity of peptides was investigated as per Carmona et al.. Briefly, 1000 µg of a peptide was incubated with 50 µg of a protease (20:1 w/w) at 37 °C for 3 h in phosphate buffered saline PBS (pH 7.4). The enzyme activity was then terminated by heating (70 °C, 5 min) and the samples centrifuged at 12,000× g. The activity of the supernatant on E. coli and S. aureus was tested as above, in triplicate.

P. aeruginosa ATCC9027 = format: cell-based, Pseudomonas aeruginosa; details: MHB, 37 °C overnight, A595; mode of three independent experiments
Experimental: as §1

HeLa cells = format: cell-based, human; details: MTT, 24 h, peptide up to 250 µg/mL; concentration causing 50% cell growth inhibition; mean of triplicate assays
Experimental: as §2

E. coli ATCC25922 = format: cell-based, Escherichia coli; details: MHB; for MIC E. coli, No NaCl: 0 mM NaCl; for MIC E. coli, No NaCl / MIC E. coli, With 50mM NaCl / MIC E. coli, With 100mM NaCl / MIC E. coli, With 150mM NaCl: triplicate, mode; for MIC E. coli ATCC25922: 37 °C overnight, A595, mode of three independent experiments
Experimental: as §1

E. coli and S. aureus = experiment: Salt tolerance (MICs under 0-150 mM NaCl, summary); format: cell-based, Escherichia coli; Staphylococcus aureus; design: key: Up to 50 mM: no effects on antibacterial activity up to 50 mM NaCl but increase in the MICs for E. coli and S. aureus at 100 mM NaCl; Intolerant: not resistant to salt effects even at 50 mM NaCl; Up to 150 mM: no effects on antibacterial activity up to 150 mM NaCl; details: MICs for E. coli and S. aureus in MHB with 0, 50, 100 or 150 mM NaCl
Experimental: as §1

Row | Molecule | MIC C. albicans FRR 5580 (C. albicans FRR 5580) [µg/mL] | MIC S. aureus, No NaCl (S. aureus ATCC25923) [µg/mL] | MIC S. aureus, With 50mM NaCl (S. aureus ATCC25923) [µg/mL] | MIC S. aureus, With 100mM NaCl (S. aureus ATCC25923) [µg/mL] | MIC S. aureus, With 150mM NaCl (S. aureus ATCC25923) [µg/mL] | MIC S. aureus ATCC25923 (S. aureus ATCC25923) [µg/mL] | Binding to DNA in vitro (concentration inhibiting plasmid migration) [1] [µg/mL] | Binding to DNA in vitro (concentration inhibiting plasmid migration) ([1]; listed as cyclized PuroA) [µg/mL] | IC50 NIH-3T3 (NIH-3T3 cells) [µg/mL] | Cytotoxicity to NIH-3T3 mouse fibroblasts (in words) (NIH-3T3 cells) | Protease Stability [2] | MIC P. aeruginosa ATCC9027 (P. aeruginosa ATCC9027) [µg/mL] | IC50 HeLa (HeLa cells) [µg/mL] | MIC E. coli, No NaCl (E. coli ATCC25922) [µg/mL] | MIC E. coli, With 50mM NaCl (E. coli ATCC25922) [µg/mL] | MIC E. coli, With 100mM NaCl (E. coli ATCC25922) [µg/mL] | MIC E. coli, With 150mM NaCl (E. coli ATCC25922) [µg/mL] | MIC E. coli ATCC25922 (E. coli ATCC25922) [µg/mL] | Salt Tolerance (E. coli and S. aureus)
1 | CC(C)[C@@H]1NC(=O)[C@@H]2CCCN2C(=O)[C@H](Cc2ccccc2)NC(=O)CNC(=O)[C@H](CCCCN)NC(=O)[C@H](Cc2c[nH]c3ccccc23)NC(=O)[C@H](Cc2c[nH]c3ccccc23)NC(=O)[C@H](CCCCN)NC(=O)[C@H](Cc2c[nH]c3ccccc23)NC(=O)[C@H](Cc2c[nH]c3ccccc23)NC(=O)[C@H](CCCNC(=N)N)NC(=O)[C@H](Cc2c[nH]c3ccccc23)NC(=O)[C@H]([C@@H](C)O)NC1=O [Cyclic PuroA] | >250 | 125 (≈ 67.7 µM) | 250 (≈ 135 µM) | 250 (≈ 135 µM) | > 250 | 125 (≈ 67.7 µM) | ≥ 64 | 64 | >250 | no cytotoxicity | Unstable | >250 | >250 | 250 (≈ 135 µM) | > 250 | > 250 | > 250 | 250 (≈ 135 µM) | Intolerant
2 | RRRRWRWWRWWRR-NH2 [Peptide R8] | 250 | 64 | 64 | 64 | 64 | – | ≥ 64 | – | >250 | no cytotoxicity | Unstable | 64 | 250 | 64 | 64 | 64 | 64 | – | Up to 150 mM
3 | WRWWKWW-NH2 [dW7, diastereomeric counterpart of W7] | 64 | 8 | 8 | 8 | 8 | 8 | ≥ 32 | – | >250 | – | – | 16 | 125 | 8 | 8 | 8 | 8 | 8 | Up to 150 mM
4 | WRWWKWWK-NH2 [Peptide W8] | 64 | 8 | 8 | 8 | 8 | 8 | ≥ 16 | – | >250 | no cytotoxicity | Unstable | 32 | 250 | 4 | 4 | 4 | 4 | 4 | Up to 150 mM
